Assays:
S. aureus [1] = conditions: with S. aureus; Adv. Funct. Mater. 2013, 23, 4801-4809; cited from earlier work
S. aureus [2] = assay: PAR in solution: S. aureus growth and minimal inhibitory concentration in MHB medium; type: cell-based, Staphylococcus aureus; conditions: for inhibition of S. aureus growth by PAR in solution (in words): concentrations up to 0.04 mg·mL^−1, 24 h at 37° C. in MHB; for times less active than PAR100 or PAR200 chains: from the MICs determined in solution; for inhibition of bacterial growth by PAR in solution (in words): at 1 μM
Procedure: PAR with 10, 30, 100 or 200 arginine residues per chain were tested. Each PAR was incubated 24 h at 37° C. in 300 μL of MHB medium with S. aureus (A620=0.001). Pathogen growth of 0% corresponds to medium with antibiotics (and without PAR) and 100% to medium without PAR. Each value corresponds to the mean value of 3 individual experiments (3 samples per experiment and condition) and error bars correspond to standard deviations. For each concentration, the first column represents the normalized pathogen growth of S. aureus for PAR10, the 2nd column for PAR30, the third column for PAR100 and the fourth for PAR200.
In the following the inventors of the present invention wanted to further elucidate the underlying mechanism that confer to the coatings of the invention the strong inhibitory property on the surface and in the supernatant. As an example the (PAR30/HA)24 coating was further investigated. Accordingly, the minimal inhibitory concentration (MIC) of PAR in solution was determined using bacterial assay as described in Experimental Section. […] Finally for PAR at concentrations of 0.01 mg·mL^−1, inhibition of 100% was shown only for PAR30. Longer or shorter PAR chains (PAR10, PAR100 or PAR200) inhibits only partially (less than 40%) S. aureus growth. […] This reasoning is valid when PAR concentration values are expressed in mass (mg·mL^−1) thus it is related to the number of arginine monomers. However when the graph is plotted with concentrations in μM (and thus proportional in number of chains), which means that concentration is related to number of chains, different interpretation can be made. […] Moreover the MIC100 values obtained for PAR30, PAR100 or PAR200 ranges at very low concentrations (between 1 and 2 μM) which is remarkable when compared to well-known antimicrobial peptides (for example 30 μM for cateslytin with S. aureus, see Adv. Funct. Mater. 2013, 23, 4801-4809). PAR is thus a powerful candidate to fight against S. aureus.

Substance | MIC of a known antimicrobial peptide (S. aureus [1]) | concentration needed to totally inhibit bacterial growth in solution (S. aureus [2]; S. aureus, PAR in solution) | inhibition of S. aureus growth by PAR in solution (in words) (S. aureus [2]) | times less active than PAR100 or PAR200 chains (S. aureus [2]) | inhibition of S. aureus growth by PAR in solution (S. aureus [2]; 0.01 mg·mL^−1, 24 h at 37° C. in MHB) | MIC90 (S. aureus [2]; S. aureus, PAR in solution) | inhibition of bacterial growth by PAR in solution (in words) (S. aureus [2]) | inhibition of S. aureus growth by PAR in solution (S. aureus [2]; 0.02 mg·mL^−1, 24 h at 37° C. in MHB)
cateslytin | 30 µM |  |  |  |  |  |  | 
poly-L-arginine [PAR10] |  | about 10 μM | totally inhibited | 10 times |  |  |  | 
poly-L-arginine [PAR30] |  | about 10 μM | totally inhibited | 2 times | 100% | about 2 μM |  | 
poly-L-arginine [PAR100] |  |  | totally inhibited |  |  |  | totally inhibit | 
poly-L-arginine [PAR200] |  |  | totally inhibited |  |  |  | totally inhibit | about 45%

From patent US11602578B2, “Crosslinkable polypeptide and hyaluronic acid coatings” (Université de Strasbourg, priority 2017, dated 2023)
